Ends that are not written are not given here. * marks the point of attachment. N,N‑distearylglycyl = CCCCCCCCCCCCCCCCCCN(CCCCCCCCCCCCCCCCCC)CC(=O)*
Key:
[1] = Particle size of peptide-macromolecule complex after enmeshment and condensation; type: physicochemical; conditions: for particle size: peptide added to DNA in the absence of condensing peptide, CHAPS micelles diluted below cmc
Method: Subsequently, the nucleic acid becomes coated with lipophilic peptide and enmeshed; forming a condensed nucleic acid/lipophilic peptide complex while CHAPS detergent monomers can be dialyzed out of the resulting mixture (FIGURE EIGHT).
The degree of condensation of the nucleic acid given the treatment of example two is shown as FIGURE NINE. When distearyl-glycyl-apoE-3^129-169 was added to DNA previously condensed with K8, the particle size increased only ˜20%. The addition of JTS-1 increased the particle size another 40%. By contrast, addition of distearyl-glycyl-apoE-3^129-169 to DNA in the absence of condensing peptide gave a smaller particle, about 60 nm. Condensation and enmeshment with the distearyl-glycyl-apoE-3^129-169Q142, the mutant peptide, also gave a small, 60 nm monodisperse particle population. When distearyl-glycyl-apoE-3^129-169 in 10 mM CHAPS was diluted without DNA being present, the resulting vesicles were ˜450 nm in diameter. […] Free DNA in the control remained at the top of the gradient, while the enmeshed-condensed complex was found at the bottom of the centrifugation tube.

293 epithelial cells = test: Transfection of 293 epithelial cells grown in lovastatin to up-regulate LDL receptors; type: cell-based; conditions: for transfection ability of peptide-macromolecule complexes (FIG. 10): comparison between complexes
Method: The ability of the formulations of example three to transfect cells was tested in 293 epithelial cells grown in 1 μg mL^−1 lovastatin overnight to up-regulate LDL receptors. […] As expected from the reduced binding of the mutant peptide to the LDL receptor, expression by mutant peptide complexes was about 5% of that observed with the wild-type apoE peptide complexes. We conclude that the diacyl-peptide functions as a condensing agent, an encapsulation agent, a targeting agent and a lytic agent. Apart from the well defined receptor ligand domain, the sequence regions that contain the other functions remain to be elucidated.

LDL receptor = target: T1, LDL receptor (Homo sapiens, UniProt P01130); test: Cytosis and degradation of labeled LDL complexed with lipophilic peptide (FIG. 4); type: cell-based
T1 construct: endogenous in cells
T1 sequence (P01130 22-860, species assumed): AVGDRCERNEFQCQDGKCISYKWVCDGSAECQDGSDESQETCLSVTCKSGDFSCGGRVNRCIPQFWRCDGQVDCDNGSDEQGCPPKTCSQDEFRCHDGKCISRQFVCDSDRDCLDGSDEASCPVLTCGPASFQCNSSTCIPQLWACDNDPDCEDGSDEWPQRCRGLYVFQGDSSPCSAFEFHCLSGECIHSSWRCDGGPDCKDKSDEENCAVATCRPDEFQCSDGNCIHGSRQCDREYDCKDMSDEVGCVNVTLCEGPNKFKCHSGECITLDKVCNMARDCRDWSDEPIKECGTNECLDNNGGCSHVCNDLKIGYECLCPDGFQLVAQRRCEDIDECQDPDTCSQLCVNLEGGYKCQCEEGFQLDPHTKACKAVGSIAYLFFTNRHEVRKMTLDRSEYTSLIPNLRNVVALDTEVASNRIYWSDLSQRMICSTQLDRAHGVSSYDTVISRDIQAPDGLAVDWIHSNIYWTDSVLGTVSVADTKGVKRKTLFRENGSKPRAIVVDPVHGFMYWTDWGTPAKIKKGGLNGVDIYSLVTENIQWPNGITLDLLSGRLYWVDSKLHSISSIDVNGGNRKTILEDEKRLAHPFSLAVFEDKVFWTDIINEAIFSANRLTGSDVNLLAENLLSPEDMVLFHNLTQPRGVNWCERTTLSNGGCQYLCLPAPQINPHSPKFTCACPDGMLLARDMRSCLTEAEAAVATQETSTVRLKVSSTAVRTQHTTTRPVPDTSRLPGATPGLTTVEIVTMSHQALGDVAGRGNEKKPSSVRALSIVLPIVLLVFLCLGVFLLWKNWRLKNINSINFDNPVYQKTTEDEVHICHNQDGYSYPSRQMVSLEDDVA

Substance	particle size [1]	expression relative to wild-type apoE peptide complexes (293 epithelial cells; 293 epithelial cells, 1 μg mL^−1 lovastatin overnight)	transfection ability of peptide-macromolecule complexes (FIG. 10) (293 epithelial cells)	cytosis and degradation of labeled LDL complexed with peptide (FIG. 4) (LDL receptor)	comparative size of peptide complexes ([1]; diameter after condensation of DNA (FIG. 9))	increase in particle size ([1]; peptide added to DNA previously condensed with K8)	diameter of resulting vesicles ([1]; peptide in 10 mM CHAPS diluted without DNA being present)	further increase in particle size ([1]; JTS-1 added to K8-condensed DNA plus distearyl-glycyl-apoE-3^129-169)	necessity of component for efficient gene transfer (293 epithelial cells; 293 epithelial cells (FIGURE TENc))
distearyl-glycyl-apoE-3^129-169(Q142)	60 nm	about 5%	significantly less transfection	significantly less cytosis and degradation					
distearyl-glycyl-apoE-3^129-169 ({N,N‑distearylglycyl}-STEELRVRLASHLRKLRKRLLRDADDLQKRLAVYQAGAREG)	about 60 nm		No significant transfection difference	cytosed and subsequently degraded	greatest reduction in diameter	~20%	~450 nm		
GLFEALLELLESLWELLLEA [JTS-1, reference compound]								40%	Neither the galtoselated K8 or JTS-1 were necessary
